How the values were obtained:
Assay in all cases: 3' UTR reporter interaction score (median-centred robust z-score of log2 firefly/Renilla activity); higher = less repression of the 3' UTR reporter
Details in all cases: HEK293T; 48 h
[1] = system: BRCA2
In short: (§1)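 Firefly and Renilla luciferase activities were read 48 h post-transfection in HEK293T cells (10,000/well, 96-well plates). The cells had received 100 ng firefly luc2P reporter bearing the gene's 3' UTR, 20 ng Renilla pRL-TK control and 2.5 pmol miRNA mimic via DharmaFECT Duo. The interaction score, where more negative means interaction, is a per-plate robust z-score (median, median absolute deviation) of the log firefly/Renilla ratio, median-centred per miRNA and averaged over at least two independent screens.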

[2] = system: EZH2
In short: as §1

[3] = system: FBXW7
In short: as §1

[4] = system: HRAS
In short: as §1

[5] = system: MYB
In short: as §1

[6] = system: MYCN
In short: as §1

[7] = system: MYC
In short: as §1

[8] = system: MYT1L
In short: as §1

[9] = system: NOTCH1
In short: as §1

[10] = system: PHF6
In short: as §1

[11] = system: PHOX2B
In short: as §1

[12] = system: RB1
In short: as §1

[13] = system: TP53
In short: as §1

[14] = system: ZEB2
In short: as §1

Sequence	3' UTR reporter interaction score [1]	3' UTR reporter interaction score [2]	3' UTR reporter interaction score [3]	3' UTR reporter interaction score [4]	3' UTR reporter interaction score [5]	3' UTR reporter interaction score [6]	3' UTR reporter interaction score [7]	3' UTR reporter interaction score [8]	3' UTR reporter interaction score [9]	3' UTR reporter interaction score [10]	3' UTR reporter interaction score [11]	3' UTR reporter interaction score [12]	3' UTR reporter interaction score [13]	3' UTR reporter interaction score [14]
UCUUUGGUUAUCUAGCUGUAUGA	-0.397	0.57	0.588	0.757	-0.0519	-0.305	-0.165	-0.093	-0.836	0.471	-0.756	0.127	-1.13	0.948
UAGCAGCACGUAAAUAUUGGCG	-0.0822	0.0745	-0.915	-0.0204	0.8	0.0935	0.946	-0.142	-0.0927	-0.551	-0.629	-0.115	-0.054	0.217
UGGCUCAGUUCAGCAGGAACAG	1.1	-0.274	-0.156	-1.16	0.0413	0.921	-2.14	0.53	-1.7	-0.0264	0.0378	0.0253	0.345	0.984
UGUGCAAAUCCAUGCAAAACUGA	-0.438	0.306	0.561	-1.63	-1.86	-3.09	0.638	-0.216	-0.355	0.456	-0.753	0.608	0.0709	-2.12
ACAGCAGGCACAGACAGGCAG	-0.408	-1.08	-0.152	-0.306	-0.134	-0.201	-0.0632	-1.17	0.191	1.37	0.072	0.215	-0.292	1.63
UGGAGGAGAAGGAAGGUGAUG	-2.61	-2.61	-0.125	-0.351	1.88	0.481	-2.42	2.74	-0.968	-0.248	2.06	1.82	-0.557	3.77
UAGCAGCGGGAACAGUUCUGCAG	0.681	-0.757	-2.86	-0.261	-2.27	0.142	0.339	-3.34	9.71e-17	0.822	-0.446	0.756	1.12	0.481
UGAGCUAAAUGUGUGCUGGGA	-0.453	0.105	-0.406	-0.575	0.373	0.0799	-0.176	1.13	-0.446	-0.0551	0.175	-0.0745	0.237	0.263
AACAUUCAUUGUUGUCGGUGGGUU	-0.763	-0.453	0.226	-0.818	0.819	-0.95	-0.122	1.2	0.549	0.446	0.761	0.277	-1.07	1.49
CCACACCGUAUCUGACACUUU	-0.654	-0.643	0.287	-0.828	-0.254	0.101	-1.37	0.0842	-0.439	0.504	0.567	0.211	0.0153	1.51
UAAUCUCAGCUGGCAACUGUG	1.06	-0.0854	-0.0147	0.474	-0.952	0.412	0.197	-0.796	-0.148	0.579	0.207	-0.947	-0.775	0.502
UCUUGGAGUAGGUCAUUGGGUGG	0.0799	0.166	-2.32	1.18	-0.086	-0.819	0.457	-0.548	-0.846	1.13	-1.26	-0.403	0.12	1.13
UCUAGGCUGGUACUGCUGA	-0.172	-0.385	0.217	-0.226	0.874	0.628	-0.9	0.751	-0.326	-0.473	-0.185	-0.812	0.681	0.447
UGUAAACAUCCCCGACUGGAAG	-0.00428	0.0787	0.0307	0.945	0.447	-1	-0.345	0.873	-0.121	0.331	0.775	1.18	-0.339	-1.09
UUAAGACUUGCAGUGAUGUUUAA	0.155	0.772	1.23	0.424	-1.14	0.438	-0.159	-0.158	0.344	-1.09	-0.221	-2.53	1.42	-4.05
AUGACCUAUGAAUUGACAGAC	-0.0675	0.321	-0.658	0.425	1.61	1.35	1.39	0.231	-0.0227	-2.93	-1.53	-3	0.0613	-6.08
UCCUUCAUUCCACCGGAGUCUG	-0.488	0.832	-0.512	-1.28	1.93	0.466	1.16	1.34	-0.263	0.83	-0.547	0.813	-0.464	-2.53
AACACACCUGGUUAACCUCUUU	0.0379	0.419	-0.274	0.473	-0.0237	1.21	-0.499	0.591	-1.72	-2.01	0.138	-0.572	0.317	0.382
CUGGGAUCUCCGGGGUCUUGGUU	-0.371	-0.155	0.0113	-0.593	-0.958	0.56	0.773	-0.147	-0.177	-0.552	0.484	2.57	-1.29	-0.251

Sequence	3' UTR reporter interaction score [1]	3' UTR reporter interaction score [2]	3' UTR reporter interaction score [3]	3' UTR reporter interaction score [4]	3' UTR reporter interaction score [5]	3' UTR reporter interaction score [6]	3' UTR reporter interaction score [7]	3' UTR reporter interaction score [8]	3' UTR reporter interaction score [9]	3' UTR reporter interaction score [10]	3' UTR reporter interaction score [11]	3' UTR reporter interaction score [12]	3' UTR reporter interaction score [13]	3' UTR reporter interaction score [14]
GGCGGAGGGAAGUAGGUCCGUUGGU	0.242	0.332	-0.817	-0.537	0.0558	-0.331	-0.0304	0.0209	0.067	0.0679	-1.42	0.267	-0.152	0.059
ACUGGGGGCUUUCGGGCUCUGCGU	0.135	-0.722	0.537	-0.439	0.119	-0.18	-0.444	0.0192	0.864	2.06	-0.685	0.988	0.587	1.01
ACUCAAAAUGGGGGCGCUUUCC	-0.27	0.137	-0.231	0.68	-0.497	-0.623	0.445	0.0549	-0.52	2.12	0.0383	0.824	-0.765	0.347
UGUCUGCCCGCAUGCCUGCCUCU	0.911	1.24	0.234	-2.78	-1.11	-1.48	-0.223	0.694	-0.629	1.55	-1.69	0.711	-0.199	-0.366
CAAAACUGGCAAUUACUUUUGC	-0.307	0.755	-2.13	0.367	-1.52	-0.107	-0.183	-0.395	0.158	-1.26	-0.532	0.322	0.751	0.0176
AUCGUGCAUCCUUUUAGAGUGU	-0.461	0.0977	-0.0607	-1.03	0.368	1.14	-0.764	-0.261	-0.741	2.24	0.0627	0.712	-0.802	-2.58
CACUCAGCCUUGAGGGCACUUUC	0.623	0.269	-1.64	-0.0814	1.11	1.12	-1.6	-1.55	0.801	-4	0.0189	0.059	0.0719	0.556
AUCACAUUGCCAGGGAUUUCC	-1.67	0.281	0.0652	-0.452	-0.3	0.592	-0.00223	0.197	-0.492	0.394	-0.216	0.826	-1.29	2.06
AGGAGGCAGCGCUCUCAGGAC	-0.741	-1.61	-0.582	-0.534	0.571	0.868	-1.13	2.05	-2.44	1.36	0.109	0.463	-0.457	2.03
UAAACGUGGAUGUACUUGCUUU	0.489	0.463	0.998	-0.799	-0.172	-0.319	-1.34	-0.58	0.553	-1.71	-0.628	0.153	0.196	0.846
GUCAUACACGGCUCUCCUCUCU	0.502	-0.733	-0.585	0.779	0.607	-1.89	0.275	-0.904	0.867	-2.04	-0.585	-0.0565	-0.0395	0.639
GAAGUUGUUCGUGGUGGAUUCG	0.514	-2.16	-1.37	0.113	0.448	-0.332	0.185	-1.32	0.409	-0.491	-0.358	1.05	-1.17	0.478
CUGGACUUAGGGUCAGAAGGCC	-1.05	-0.857	-0.885	0.067	1.31	0.447	-0.781	0.968	-1.28	0.77	1.18	1.37	-0.836	2.31
UAGUACCAGUACCUUGUGUUCA	-0.45	0.789	0.884	0.088	-2.96	0.174	0.000513	0.421	-0.471	-0.322	-0.362	0.0822	-0.292	1.08
GUUUGCACGGGUGGGCCUUGUCU	0.0623	-0.233	-0.619	-1.1	-0.536	1.09	-0.328	2.21	0.297	0.29	0.0301	-0.0813	-0.225	-1.23
AUAAGACGAGCAAAAAGCUUGU	2.27	1.23	0.133	0.557	-1.19	-0.0307	-0.771	0.212	-0.743	-0.375	-0.501	-1.39	0.501	-2.58
ACUCCAGCCCCACAGCCUCAGC	-0.443	-0.117	-1.03	0.232	0.784	0.185	-0.755	-0.581	-0.369	-1.69	1.37	0.647	-0.602	-0.519
GAACGCCUGUUCUUGCCAGGUGG	1.57	1.05	-1.79	0.54	0.0781	-0.325	0.431	-0.992	0.125	-1.24	-0.674	0.00732	-0.416	0.419
UGAGGUAGUAGAUUGUAUAGUU	0.246	-5.6	0.329	0.942	0.461	-4.33	-2.66	0.00725	-0.987	0.283	0.189	0.338	-0.262	-0.843
